Entries after “also recorded” stand apart in the source; their conditions may differ. Counter-ions that a name gives are not always drawn. Like-named read-outs stand apart in the source and are kept apart here.
Key:
[1] = acute toxicity in mice (LD50); type: in vivo; conditions: mouse, in vivo, male mouse
From the text: (§1) The acute toxicity of the compounds according to the invention has been studied in mice. The lethal doses 50 are set out in the table which follows:
(§2) LD50 DETERMINED IN THE MALE MOUSE -

serotonin [2] = assay: antiserotonin action in respect of bronchospasm in the guinea-pig, method of Konzett and Rossler; type: in vivo; conditions: serotonin 20 μg/kg intravenously, anaesthetised guinea-pigs
Procedure: The antiserotonin action in respect of bronchospasm has been studied in the guinea-pig under the following conditions:
The bronchospasm is recorded by the method of Konzett and Rossler, which comprises connecting the trachea of the guinea-pig to an artificial respiration pump, which passes a constant volume of air, slightly greater than the respiratory capacity of the animal, into the bronchi at a physiological rhythm. The excess quantity of air, which varies according to the diameter of the bronchi, is discharged to a special manometric device which measures the volume of air at each inhalation.
The serotonin is administered intravenously to the guinea-pigs in a dose of 20 μg/kg. The guinea-pigs have previously been anaesthetised with ethyl carbamate, thus producing a bronchial spasm.
The product to be studied is then administered intravenously, after which the administration of serotonin is repeated one minute later. The percentage inhibition of bronchospasm is measured for each dose of the product to be studied, then the antiserotonin DE50 relative to bronchospasm in the guinea-pig is determined.

apomorphine = assay: antiemetic power relative to apomorphine, dogs, method of Chen and Ensor; type: in vivo, dog; conditions: s.c. 30 minutes before apomorphine 100 μg/kg s.c.; for ED50: Canis lupus familiaris, sc, read-out: Antiapomorphine ED50 in the dog
Procedure: The compounds of the invention have undergone other pharmacodynamic tests, and in particular their antiemetic power relative to apomorphine has been measured.
The test has been carried out on dogs by the method of Chen and Ensor.
The compounds of the invention are administered subcutaneously, 30 minutes before the apomorphine, which is administered subcutaneously in a dose of 100 μg/kg.

serotonin [3] = assay: antiserotonin action in connection with stomach ulceration in the rat; type: in vivo; conditions: sc
Procedure: The antiserotonin action in connection with stomach ulceration has been studied in the rat under the following conditions:
30 mg/kg of serotonin is administered subcutaneously to female rats in two stages, with an interval of 16 hours. The product being studied is administered subcutaneously at the same time as the serotonin, in two stages with increasing doses. A group of 30 animals is used for each dose and a group of 60 animals is used as the control. The animals are sacrificed 22 hours after the first injection of serotonin, and their stomachs are taken out and examined. The percentage protection for each dose studied is determined, then the DE50, the dose protecting 50% of the animals, from gastric ulceration, is measured graphically.

male mouse = assay: acute toxicity in mice (LD50); type: in vivo
From the text: as §1, §2

male rats = assay: cataleptic action in male rats, subcutaneous; type: in vivo, rat; conditions: 200 mg/kg subcutaneously, after 7 hours
Procedure: The cataleptic action has been studied as follows.
Benzamides are administered subcutaneously to male rats. The criterion taken for the cataleptic state is that the animal should be immobile for 30 seconds with its rear limbs apart, arranged carefully on wooden cubes 4 cm high, which thus puts the animal in an unaccustomed and uncomfortable position.
The cataleptic action is measured when the effect is at its maximum, i.e. 5 to 7 hours after the substance has been administered.

[4] = system: alcoholic or heroin addicts; type: in vivo; conditions: 200 mg per day oral or intramuscular, of 30 patients
Procedure: Thus for example, 200 mg per day of compound (1) was administered orally or by intramuscular injection to 30 patients who were alcoholic or heroin addicts. In 28 cases the product acted rapidly and the drug addicts asked for more. Its effect is different from that of opiates and the main antalgics.

[5] = system: patients suffering from catatonic hebephrenia; assay: clinical treatment of catatonic hebephrenia; type: in vivo; conditions: 100-300 mg daily oral or intramuscular, of 21 patients
Procedure: 21 patients suffering from catatonic hebephrenia were treated with compound (1), a daily dose of 100-300 mg being given orally or by intramuscular injection. In 13 cases removal of inhibitions was observed, sometimes with a reversal of mood, which made it possible to make contact with the patient.

[6] = system: patients suffering from migraine; assay: clinical treatment of migraine; type: in vivo; conditions: single patients, 100-300 mg per day
Procedure: Compound (1) was administered in a dose of three tablets per day (300 mg) to a patient suffering from frequent migraines; these obliged hereto interrupt any professional activity for three or four days per month.
Compound (1) was administered in a daily dose of 300 mg taken in three portions, to two twin brothers who suffered each month from attacks of migraine accompanied by vomiting.
Compound (2) was administered continuously, in doses of two tablets per day (200 mg), to a person who had suffered from attacks of migraine for four years. The attacks had not responded to curative treatment (ergotamine and caffeine) or preventive treatment.
Compound (2) was administered in doses of three tablets per day (300 mg) to a person suffering from quasi permanent occipital cephalalgia and several times a week from attacks of migraine with right hemicrania, photophobia and nausea.

[7] = system: patients suffering from sudden attacks of delirium; assay: clinical treatment of sudden attacks of delirium; type: in vivo; conditions: 350 mg per day oral or intramuscular
Procedure: 41 patients suffering from sudden attacks of delirium were treated with 350 mg per day of compound (2), administered orally or by intramuscular injection.

[8] = Rattus norvegicus, 22 h, female rats, serotonin 30 mg/kg s.c. in two stages, dose protecting 50% of the animals, read-out: Antiserotonin ED50 in respect of stomach ulceration, in the rat

| SMILES | LD50 ([1]; ip, I.P.) [mg/kg] | LD50 ([1]; iv) [mg/kg] | LD50 ([1]; po) [mg/kg] | LD50 ([1]; sc, subcutaneous) [mg/kg] | ED50 (serotonin [3]; [8]) [mg/kg] | ED50 (apomorphine) [mg/kg] | further results |
| --- | --- | --- | --- | --- | --- | --- | --- |
| CCN1CCCC1CNC(=O)c1cc(S(=O)(=O)CC)c(N)cc1OC (single isomer, unassigned) [Compound 4, Dextrorotatory tartrate of N-[1-ethyl 2-pyrrolidylmethyl]2-methoxy 4-amino 5-ethylsulphonyl benzamide] | 188 | 39.8 | 1560 to 1620 | 254 to 263 | 0.46 |  | Antiserotonin ED50 relative to bronchospasm in the guinea-pig (serotonin [2]): 106 μg/kg/IV; Antiapomorphine ED50 in the dog (apomorphine): 12 μg/kg/s.c. |
| CCN1CCCC1CNC(=O)c1cc(S(=O)(=O)CC)c(N)cc1OC (single isomer, unassigned) [Compound 5, Levorotatory tartrate of N-[1-ethyl 2-pyrrolidylmethyl]2-methoxy 4-amino 5-ethylsulphonyl benzamide] |  |  |  |  |  |  | LD50 (male mouse; I.P.): 122 to 128 mg/kg; LD50 (male mouse; intravenous): 44.8 mg/kg; LD50 (male mouse; oral): 1109 to 1160 mg/kg; LD50 (male mouse; subcutaneous): 137 to 149 mg/kg; Antiapomorphine ED50 in the dog (apomorphine): 0.28 μg/kg/s.c.; cataleptic state, % of the animals (male rats): 30% |
| CCS(=O)(=O)c1cc(C(=O)NCC2CCCN2C)c(OC)cc1N (single isomer, unassigned) [Compound 6, Dextrorotatory N-1-methyl 2-pyrrolidylmethyl 2-methoxy 4-amino 5-ethylsulphonyl benzamide] | 304 to 322 | 62 to 64 | 1190 to 1260 | 380 to 396 | 0.34 to 0.44 | 0.008 |  |
| CCN1CCCC1CNC(=O)c1cc(S(=O)(=O)CC)c(N)cc1OC (stereo not drawn) [Compound 1, N-(1-ethyl 2-pyrrolidylmethyl) 2-methoxy 4-amino 5-ethylsulphonyl benzamide] | 175 to 180 | 56 to 60 | 1020 to 1050 | 224 to 250 | 1 | 0.00029 | Antiserotonin ED50 relative to bronchospasm in the guinea-pig (serotonin [2]): 74 μg/kg/IV; cases in which the product acted rapidly [4]: 28 cases; cases with removal of inhibitions [5]: 13 cases; effect on migraine (in words) [6]: The migraines decreased from the first month and disappeared altogether from the second month; also recorded: For one of the twins the migraine disappeared immediately; also recorded: For the other the pain disappeared from the second method and only a few attacks of nausea persisted |
| CCS(=O)(=O)c1cc(C(=O)NCC2CCCN2C)c(OC)cc1N (stereo not drawn) [Compound 2, N-[1-methyl 2-pyrrolidylmethyl]2-methoxy 4-amino 5-ethylsulphonyl benzamide] | 210 to 217 | 56 to 57 | 1330 | 280 | 0.4 | 0.0008 | antidepressive action ([7]; 41 patients): there was an antidepressive action; tolerance ([7]; 41 patients, all cases): excellent tolerance in all cases; cases with a very good antipsychotic action in sudden attacks of delirium ([7]; of 41 patients): 38 cases; effect on migraine (in words) [6]: their intensity is decreasing; also recorded: From the third week the migraine attacks disappeared completely |
| C=CCN1CCCC1CNC(=O)c1cc(S(=O)(=O)CC)c(N)cc1OC (stereo not drawn) [Compound 3, N-[1-allyl 2-pyrrolidylmethyl]2-methoxy 4-amino 5-ethylsulphonyl benzamide] | 216 to 217 | 106 to 107 | 2230 to 2380 | 312 to 330 | 0.65 | 0.00065 |  |
| CCCS(=O)(=O)c1cc(C(=O)NCC2CCCN2CC)c(OC)cc1N (stereo not drawn) [Compound 7, N(1ethyl 2pyrrolidylmethyl) 2methoxy 4amino 5propylsulphonyl benzamide] | 160 to 165 | 43 to 46.8 | 570 to 629 | 140 to 144 | 3.2 | 0.0016 |  |
| CCN1CCCC1CNC(=O)c1cc(S(C)(=O)=O)c(N)cc1OC (stereo not drawn) [Compound 8, N-[1-ethyl 2-pyrrolidylmethyl]2-methoxy 4-amino 5-methylsulphonyl benzamide] | 234 to 238 | 46.5 to 50 | 625 to 660 | 208 to 225 | 3 | 0.0027 |  |
| COc1cc(N)c(S(C)(=O)=O)cc1C(=O)NCC1CCCN1C (stereo not drawn) [Compound 9, N-[1-methyl 2-pyrrolidylmethyl]2-methoxy 4-amino 5-methylsulphonyl benzamide] | 200 to 216 | 54 |  | 202 | 1.14 | 0.007 |  |
| CCN1CCCC1CNC(=O)c1cc(S(N)(=O)=O)ccc1OC (stereo not drawn) [sulpiride, reference compound] |  |  |  |  |  |  | ED50 (serotonin [3]; rat, comparator value in text, read-out: antiserotonin ED50 relative to stomach ulceration in the rat (comparator, text)): 110 mg/kg |
